From patent publication US12617795B2, “Substituted 6,7-dihydro-5H-pyrrolo[3,4-d]pyrimidines, 5,7-dihydrofuro[3,4-d]pyrimidines, and pyrido[2,3-d]pyrimidines as KCC2 modulators” (Astrazeneca AB, priority 2020, dated 2026)
pEC50: −log10 of the molar value.

target: T1, KCC2 (Homo sapiens, UniProt Q9H2X9); experiment: KCC2 thallium transport FLIPR-based assay (Tl+ influx in HEK293 cells expressing KCC2); format: cell-based; conditions: 90 min compound incubation at RT, thallium flux at 120 s used to determine EC50
T1 construct: expressed in transfected cells; host or cells: HEK293 cells electroporated (Maxcyte STX) with the pcDNA3.1 KCC2 plasmid
T1 sequence (Q9H2X9 1-1139): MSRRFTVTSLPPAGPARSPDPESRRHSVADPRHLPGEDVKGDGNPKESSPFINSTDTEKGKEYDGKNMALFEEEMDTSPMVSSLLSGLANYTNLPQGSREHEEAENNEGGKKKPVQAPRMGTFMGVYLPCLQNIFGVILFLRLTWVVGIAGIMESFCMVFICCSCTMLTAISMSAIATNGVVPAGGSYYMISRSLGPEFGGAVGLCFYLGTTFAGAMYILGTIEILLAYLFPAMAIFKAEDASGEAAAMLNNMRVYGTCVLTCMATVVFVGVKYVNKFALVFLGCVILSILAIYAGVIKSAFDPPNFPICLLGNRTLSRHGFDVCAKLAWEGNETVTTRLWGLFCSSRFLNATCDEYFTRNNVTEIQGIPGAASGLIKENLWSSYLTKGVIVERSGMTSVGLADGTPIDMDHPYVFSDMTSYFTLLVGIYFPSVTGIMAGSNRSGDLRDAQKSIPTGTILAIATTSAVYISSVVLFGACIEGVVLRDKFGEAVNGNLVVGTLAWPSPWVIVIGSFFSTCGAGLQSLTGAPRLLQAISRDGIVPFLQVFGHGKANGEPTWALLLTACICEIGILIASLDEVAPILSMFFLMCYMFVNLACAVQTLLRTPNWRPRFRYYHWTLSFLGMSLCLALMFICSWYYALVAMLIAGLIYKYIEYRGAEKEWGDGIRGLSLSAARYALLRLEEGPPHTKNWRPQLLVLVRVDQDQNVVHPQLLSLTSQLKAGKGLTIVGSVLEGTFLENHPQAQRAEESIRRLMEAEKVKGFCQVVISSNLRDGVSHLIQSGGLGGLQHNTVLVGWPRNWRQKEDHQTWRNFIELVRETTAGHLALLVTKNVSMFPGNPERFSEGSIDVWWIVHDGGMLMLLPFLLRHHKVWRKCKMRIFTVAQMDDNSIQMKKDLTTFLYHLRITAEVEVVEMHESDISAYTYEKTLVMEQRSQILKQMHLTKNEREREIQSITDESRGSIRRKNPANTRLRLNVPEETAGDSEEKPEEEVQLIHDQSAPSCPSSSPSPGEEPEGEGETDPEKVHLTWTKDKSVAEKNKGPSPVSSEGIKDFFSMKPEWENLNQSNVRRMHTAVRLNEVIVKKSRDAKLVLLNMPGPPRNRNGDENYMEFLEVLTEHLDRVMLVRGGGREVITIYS
Procedure, shortened: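 Transient electroporation of codon-optimised human KCC2 into HEK293 cells, plated and cultured 48 h before dye loading (1 h, RT). Compounds run as a 12-point 1:2 series from 100 μM top, 90 min RT in buffer containing bumetanide; Tl+ flux read by FLIPR after stimulus addition, 1 s intervals over 120 s, with the 120 s signal used for EC50.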

pEC50 | Compound
5.41 | CC(C)N1Cc2c(Nc3ccc(C(F)(F)C(F)(F)F)cc3)nc(N3CCOCC3)nc2C1=O [Example 83, 2-(morpholin-4-yl)-4-{[4-(pentafluoroethyl)phenyl]amino}-6-(propan-2-yl)-5,6-dihydro-7H-pyrrolo[3,4-d]pyrimidin-7-one]
5.26 | CC(C)N1Cc2c(Nc3ccc(C(F)(F)C(F)(F)F)cc3)nc(N3CCO[C@H](C)C3)nc2C1=O [Example 61, 2-[(2R)-2-methylmorpholin-4-yl]-4-{[4-(pentafluoroethyl)phenyl]amino}-6-(propan-2-yl)-5,6-dihydro-7H-pyrrolo[3,4-d]pyrimidin-7-one]
5.77 | CCN(CC)c1nc(Nc2ccc(C(C)C)cc2)c2c(n1)C(=O)N(C(C)C)C2 [Example 1, 2-(Diethylamino)-6-isopropyl-4-((4-isopropylphenyl)amino)-5,6-dihydro-7H-pyrrolo[3,4-d]pyrimidin-7-one]
6.11 | CC(C)N1Cc2c(Nc3ccc(C4CCCCC4)cc3)nc(N3CCOC(C4CC4)C3)nc2C1=O (single isomer, unassigned) [Example 15, 4-[(4-cyclohexylphenyl)amino]-2-(2-cyclopropylmorpholin-4-yl)-6-(propan-2-yl)-5,6-dihydro-7H-pyrrolo[3,4-d]pyrimidin-7-one]
5.82 | C[C@@H]1CN(c2nc(Nc3ccc(C4CCCCC4)cc3)c3c(n2)C(=O)N(CCCN(C)C)C3)CCO1 [Example 72, (R)-4-((4-cyclohexylphenyl)amino)-6-(3-(dimethylamino)propyl)-2-(2-methylmorpholino)-5,6-dihydro-7H-pyrrolo[3,4-d]pyrimidin-7-one]
